Experimental data reported in patent publication US12496298B2, “Natural killer cells” (Imperial College Innovations Limited, priority 2017, dated 2025).

Tested on: mouse NK cell (NK1.1+CD3−) production from HPCs
Assay: In vitro development of NK cells from mouse HPCs (NK cell development assay, flow cytometry at Day 9)
Type: cell-based
Details: for increase in NK cell production, rank among 2, 5, 10 and 20 μM: confirmation experiments (FIG. 4)
Description: FIG. 2: Timeline of NK cell development assay. HPCs were isolated and cultured plus FIt3L, IL-7 and SCF cytokines. At Day 2, they were then transferred onto OP9 stromal cells plus or minus drug in culture medium plus the IL-15 cytokine. The media of the cultures were changed at Day 5 and the cells were harvested and analysed at Day 9.
Lineage negative cells are enriched for Hematopoietic Progenitor Cells (HPCs). […] Cells were harvested on Day 9 and analysed using flow cytometry to determine the number of NK1.1^+CD3^− cells (FIG. 2). NK1.1^+ and CD3^− are two cell surface markers that can define mouse NK cells. OP9 stromal cells were readily excluded from the analysis, as the OP9 stromal cells used were GFP positive (FIG. 3B). Flow cytometry data were analysed as the fold increase, relative to the ‘No drug’ or untreated control in each experiment. This is because the absolute percentage of NK cell production varies between experiments.
Lineage negative HSCs were purified from mouse bone marrow by crushing the leg bones in Phosphate-buffered Saline (PBS) with 2% fetal calf serum (FCS) (STEMCELL Technologies), topped up to 40 ml with magnetic-activated cell sorting (MACS) buffer (PBS, 2 mM EDTA, 0.5% BSA, sterile and filtered) and centrifuged at 800 g for 2 minutes. The cells were resuspended in PE-conjugated cocktail, (20 μl of anti-B220 (RA3-6B2), anti-mouse CD2 (RM2-5, anti-Ter119 (TER119) and anti-NK.1.1 (PK136) and 5 μl of anti-CD11b (M1/70) and anti-GR-1 (RB6-8C5) antibodies (all from Bioscience)) incubated for 5 minutes at 4° C., centrifuged and resuspended in anti-PE microbeads for 15 minutes at 4° C. Cells were washed in MACS buffer and passed through MACS columns. This allowed negative selection of HPCs. Following lineage depletion, 50 μl of the cells was analysed using flow cytometry to check for purity.
The HPCs were plated and cultured in 24-well plates at a concentration of 5×10^5 HPCs/well in 1 ml of complete cytokine medium (Dulbecco's modified eagle medium (DMEM) (Sigma Aldrich), 10% FCS, 50 μM β-Mercaptoethanol, 10 ng/ml Flt3-ligand (FIt3L) (R&D Systems), 10 ng/ml IL-7 (R&D Systems), 100 ng/ml stem cell factor (SCF) (R&D Systems) and 1% P/S) for 2 days at 37° C., 5% CO2. The HPCs were then transferred onto OP9 cells at 4500 cells/well for 96-well plate experiments and 3×10^4 cells/well for 24-well plate experiments in mouse NK cells differentiation medium (Alpha-MEM (Sigma Aldrich) plus 20% FCS, 1% P/S and 30 ng/ml IL-15). Cells were left in culture at 37° C., 5% CO2 for 7 days with a change of mouse NK cells differentiation medium at day 3 or 4.
Cells to be analysed by flow cytometry were passed through 40 μm cell strainers to remove clumps and washed with PBS buffer, centrifuged at 800 g for 2 minutes and resuspended in 100 μl fluorescent activated cell sorting (FACS) buffer (PBS plus 1% BSA) with appropriate fluorochrome conjugated antibodies at a dilution of 1 in 300. Cells were stained with the following antibodies, all of which were anti-mouse and are from eBioscience unless specified: 2B4 (clone m2B4(B6) 458.1; BioLegend), CD2 (RM2-5), CD3 (17A2), CD11b (M1/70), CD19 (1D3), CD27 (LG.7F9), CD122 (TM-b1), CD127 (A7R34), B220 (RA3-6B2), ckit (ACK2), Flt3 (A2F10), Gr1 (RB6-8C5), NK1.1 (PK136), Sca1 (D7), Ter119 (TER119), NKp46 (29A1.4) anti-human CD45 (HI30), anti-human CD2 (RPA-2.10) and anti-human CD56 (CMSSB). The lineage cocktail contained B220, CD2, CD11b, Gr1, NK1.1, and Ter119. Cells were stained in the dark at 4° C. for 30 minutes and then washed with 2 ml FACS buffer, centrifuged and resuspend in 300 μl FACS buffer plus Propidium Iodide (PI) also at a dilution of 1 in 300. Flow cytometry was performed using LSRFortessa™ cell analyser (Becton Dickinson Bioscience), sorted using FACSAria (Becton Dickinson) as indicated and full data analysis was done using FlowJo Software.

For `CCOC(=O)C1Cc2ccccc2CN1C(=O)c1ccc(SC)s1` (centres unmarked) [SR8278, 1,2,3,4-Tetrahydro-2-[[5-(methylthio)-2-thienyl]carbonyl]-3-isoquinolinecarboxylic acid ethyl ester], the “NK cell production relative to 'No drug' control” value (5 μM added at Day 0 (greatest effect)) was “over 1.4 fold”, the “increase in NK cell production, rank among 2, 5, 10 and 20 μM” value (5 μM) was “followed by 5 μM” and the “NK cell production increase compared to 'No drug' control” value (10 μM added Day 2, analysed Day 9, screen (FIG. 3)) was “over 2.4 fold”. The “increase in NK cell production relative to 'No drug' control” value (10 μM added on Days 0, 1 and 2) was “over 1.6 fold”, the “increase in NK cell production, rank among 2, 5, 10 and 20 μM” value (10 μM) was “highest increase in NK cell production” and the “number of NK cells detected” value (20 μM added Day 2, analysed Day 9) was “reduction in the number of NK cells detected”. The “NK cell production relative to 'No drug' control” value (5 or 10 μM added after Day 2) was “no significant difference” and the “production of NK cells in NK cell production assays increases” value (summary in Discussion, concentration not given) was “more than 2 fold”.
